In US12516058B2, “Small-molecule compounds for controlling endosomal toll-like receptors and therapeutic agent for autoimmune diseases using same” (priority 2020, dated 2026):
“Also recorded” adds a separate entry of the source.

Assays:
TLR9 = biological target: T1, TLR9 (Mus musculus, UniProt Q9EQU3); experiment: TNF-α secretion ELISA after TLR9 agonist ODN2395 in RAW 264.7 cells; type: cell-based; conditions: SK21 to SK82 at 0.5 μM or 2 μM, ODN2395 0.5 μM
T1 construct: endogenous in cells; host or cells: RAW 264.7
T1 sequence (Q9EQU3 26-1032): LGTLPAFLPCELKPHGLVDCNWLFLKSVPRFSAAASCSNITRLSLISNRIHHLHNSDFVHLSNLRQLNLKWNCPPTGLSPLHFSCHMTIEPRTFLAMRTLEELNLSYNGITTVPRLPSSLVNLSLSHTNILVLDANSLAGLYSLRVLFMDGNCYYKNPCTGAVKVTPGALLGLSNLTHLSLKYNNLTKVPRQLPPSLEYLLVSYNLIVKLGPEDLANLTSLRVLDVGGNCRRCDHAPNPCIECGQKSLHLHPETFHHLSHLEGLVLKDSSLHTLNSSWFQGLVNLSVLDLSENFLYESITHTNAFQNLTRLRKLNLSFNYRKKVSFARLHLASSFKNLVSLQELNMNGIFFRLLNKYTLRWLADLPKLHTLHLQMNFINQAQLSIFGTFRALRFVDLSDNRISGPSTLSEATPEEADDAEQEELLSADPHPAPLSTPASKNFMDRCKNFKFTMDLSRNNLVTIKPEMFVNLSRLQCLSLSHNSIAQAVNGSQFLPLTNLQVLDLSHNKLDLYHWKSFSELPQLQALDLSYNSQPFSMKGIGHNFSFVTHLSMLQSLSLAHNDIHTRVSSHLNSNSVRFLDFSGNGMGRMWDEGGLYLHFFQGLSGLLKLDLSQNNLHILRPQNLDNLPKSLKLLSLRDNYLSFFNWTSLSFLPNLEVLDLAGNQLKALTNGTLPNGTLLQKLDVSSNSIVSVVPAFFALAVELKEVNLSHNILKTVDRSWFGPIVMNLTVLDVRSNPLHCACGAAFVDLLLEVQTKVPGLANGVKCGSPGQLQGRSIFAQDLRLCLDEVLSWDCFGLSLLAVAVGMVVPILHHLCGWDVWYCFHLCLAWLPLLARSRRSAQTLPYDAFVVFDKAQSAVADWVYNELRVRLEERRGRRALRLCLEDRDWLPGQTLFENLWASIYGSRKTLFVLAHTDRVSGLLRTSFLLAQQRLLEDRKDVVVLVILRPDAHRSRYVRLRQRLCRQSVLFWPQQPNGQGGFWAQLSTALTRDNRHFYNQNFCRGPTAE
Description: (§1) In order to determine the inhibitory activities of the test-ligand, RAW 264.7 cells were pretreated with each candidate compound for 1 hour, then treated with Pam3CSK4 (synthetic triacyl lipopeptide; TLR1/2, Invitrogen), FSL-1 (synthetic diacyl lipoprotein, TLR2/6, 100 ng/ml), lipopolysaccharide (LPS, TLR4, Sigma Aldrich), imiquimod (IMQ, TLR7, Invitrogen), and ODN2395 (type C CpG repeat motif DNA oligo(5′-[…]-3), TLR9, Bioneer) ligand for 4 hours, and treated with poly I:C (I:C repeat motif double-stranded RNA, TLR3, Invitrogen) and TL8-506 (TLR8, Invitrogen) showing delayed reactivity for 24 hours. After activation of TLR, the supernatant was diluted in an appropriate ratio so as to measure within the standard dose range, transferred to a pre-coated 96-well assay plate, and then treated with mouse TNF-alpha secretion level in accordance with the manufacturer's instructions using a mouse-TNF-alpha ELISA-kit (Invitrogen).
(§2) In order to plot the concentration-dependent LC50 curves, treatment with the SK series ligands at different concentrations up to 200 μM (the highest concentration that could be treated within the level of 0.5% DMSO) was performed. Then, cell viability and toxicity response upon treatment with ligands were analyzed by MTT as described in Examples 1-3. Cell viability in each plot was normalized from negative control (100%; no treatment) to positive control (highest concentration of test-ligand), and LC50 was determined by non-linear regression (Graph Pad Prism 7.0). In order to plot the concentration-dependent IC50 curves, pre-treatment with the SK series ligands was performed at different concentrations up to 50 μM (twice the initial concentration). Cell responses mediated by TLR7 and TLR9 (levels of TNF-α secretion) were analyzed by ELISA as described in Examples 1-4. The cytokine level in each plot was normalized from negative control (non-treated) to positive control (treatment with ligand), and IC50 was determined by non-linear regression (Graph Pad Prism 7.0).
(§3) In order to select potential inhibitory molecules against TLR3/TLR7/TLR8/TLR9 activation, first, MTT (3-(4,5-dimethylthiazol-2-yl)-2,5-diphenyltetrazolium bromide) cell viability assay (FIG. 7) was performed upon treatment with a set of ligands from SK21 to SK82 at a concentration of 20 μM and the inhibitory activity thereof was evaluated by an ELISA assay to monitor the level of TNF-α secretion in RAW 264.7 cells. The experimental ligands from SK21 to SK82 were administered at 0.5 μM or 2 μM to the RAW 264.7 cells and stimulated with Imiquimod (TLR7, 1 μg/ml) and OND2395 (TLR9, 0.5 μM).

TLR7 = biological target: T2, TLR7 (Mus musculus, UniProt P58681); experiment: TNF-α secretion ELISA after TLR7 agonist imiquimod (IMQ) in RAW 264.7 cells; type: cell-based; conditions: SK21 to SK82 at 0.5 μM or 2 μM, Imiquimod 1 μg/ml
T2 construct: endogenous in cells; host or cells: RAW 264.7
T2 sequence (P58681 27-1050): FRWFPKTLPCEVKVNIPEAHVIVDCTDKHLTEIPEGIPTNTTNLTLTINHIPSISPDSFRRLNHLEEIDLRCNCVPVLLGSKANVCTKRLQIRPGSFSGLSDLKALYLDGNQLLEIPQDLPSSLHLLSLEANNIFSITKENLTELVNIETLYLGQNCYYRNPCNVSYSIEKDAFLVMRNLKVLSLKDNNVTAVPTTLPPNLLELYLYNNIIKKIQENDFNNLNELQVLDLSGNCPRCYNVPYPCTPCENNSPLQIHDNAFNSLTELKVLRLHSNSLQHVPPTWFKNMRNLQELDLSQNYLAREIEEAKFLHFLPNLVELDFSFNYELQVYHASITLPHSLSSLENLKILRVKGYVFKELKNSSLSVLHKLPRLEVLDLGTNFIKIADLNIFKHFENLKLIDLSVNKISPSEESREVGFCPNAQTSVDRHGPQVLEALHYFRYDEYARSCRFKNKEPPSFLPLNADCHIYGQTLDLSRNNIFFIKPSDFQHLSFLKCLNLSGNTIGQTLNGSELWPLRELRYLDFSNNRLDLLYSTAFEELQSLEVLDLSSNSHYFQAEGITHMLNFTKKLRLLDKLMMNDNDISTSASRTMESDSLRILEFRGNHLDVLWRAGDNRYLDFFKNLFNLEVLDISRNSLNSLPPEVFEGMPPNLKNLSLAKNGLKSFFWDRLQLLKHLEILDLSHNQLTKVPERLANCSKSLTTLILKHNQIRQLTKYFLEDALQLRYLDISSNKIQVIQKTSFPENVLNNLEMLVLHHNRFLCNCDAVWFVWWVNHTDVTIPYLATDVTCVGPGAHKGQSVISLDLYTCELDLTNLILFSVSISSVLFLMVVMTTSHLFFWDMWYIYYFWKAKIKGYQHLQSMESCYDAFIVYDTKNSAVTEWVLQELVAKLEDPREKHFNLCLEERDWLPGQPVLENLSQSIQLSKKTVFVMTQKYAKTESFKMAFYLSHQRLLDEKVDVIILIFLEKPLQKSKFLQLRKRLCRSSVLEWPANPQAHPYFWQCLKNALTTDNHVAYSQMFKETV
Description: as §1, §2, §3

SMILES | inhibitory activity against TLR9 (level of TNF-α secretion) (TLR9) | inhibitory activity against TLR7 (level of TNF-α secretion) (TLR7)
Cc1c(C)n(CCCN(C)Cc2ccccc2)c2nc3c(c(N)c12)CCCCC3 [SK23, 1-(3-(benzyl(methyl)amino)propyl)-2,3-dimethyl-1,5,6,7,8,9-hexahydrocyclohepta[b]pyrrolo[3,2-e]pyridin-4-amine] | significant inhibitory activity; also recorded: significantly reduced | significant inhibitory activity; also recorded: significantly reduced
CNCCCn1c(C)c(C)c2c(N)c3c(nc21)CCCCC3 [SK24, 2,3-dimethyl-1-(3-(methylamino)propyl)-1,5,6,7,8,9-hexahydrocyclohepta[b]pyrrolo[3,2-e]pyridin-4-amine] | significant inhibitory activity; also recorded: significantly reduced | significant inhibitory activity; also recorded: significantly reduced
Cc1cc2c(N)c3c(nc2n1CCCN(C)C)CCCCC3 [SK29, 1-(3-(dimethylamino)propyl)-2-methyl-1,5,6,7,8,9-hexahydrocyclohepta[b]pyrrolo[3,2-e]pyridin-4-amine] | significant inhibitory activity; also recorded: significantly reduced | significant inhibitory activity; also recorded: significantly reduced
Cc1c(C)n(CCCN(C)C)c2nc3c(c(N)c12)CCCC3 [SK36, 1-(3-(dimethylamino)propyl)-2,3-dimethyl-5,6,7,8-tetrahydro-1H-pyrrolo[2,3-b]quinolin-4-amine] | significant inhibitory activity; also recorded: significantly reduced | significant inhibitory activity; also recorded: significantly reduced
Cc1cc2c(N)c3c(nc2n1CCCN(C)C)CCCC3 [SK39, 1-(3-(dimethylamino)propyl)-2-methyl-5,6,7,8-tetrahydro-1H-pyrrolo[2,3-b]quinolin-4-amine] | significant inhibitory activity; also recorded: significantly reduced | significant inhibitory activity; also recorded: significantly reduced
CCc1nc2c(cc(C)n2CCCN(C)C)c(N)c1C [SK40, 1-(3-(dimethylamino)propyl)-6-ethyl-2,5-dimethyl-1H-pyrrolo[2,3-b]pyridin-4-amine] | significant inhibitory activity; also recorded: significantly reduced | significant inhibitory activity; also recorded: significantly reduced
CN(C)CCCn1c2ccccc2c2c(N)c3c(nc21)CCCC3 [SK52, 6-(3-(dimethylamino)propyl)-2,3,4,6-tetrahydro-1H-indolo[2,3-b]quinolin-11-amine] | significant inhibitory activity; also recorded: significantly reduced | significant inhibitory activity; also recorded: significantly reduced
CNCCCn1c2ccc(OC)cc2c2c(N)c3c(nc21)CCCC3 [SK54, 9-methoxy-6-(3-(methylamino)propyl)-2,3,4,6-tetrahydro-1H-indolo[2,3-b]quinolin-11-amine] | significant inhibitory activity; also recorded: significantly reduced | significant inhibitory activity; also recorded: significantly reduced
CNCCCn1c2ccccc2c2c(N)c3c(nc21)CCCC3 [SK55, 6-(3-(methylamino)propyl)-2,3,4,6-tetrahydro-1H-indolo[2,3-b]quinolin-11-amine] | significant inhibitory activity; also recorded: significantly reduced | significant inhibitory activity; also recorded: significantly reduced
CN(C)CCCn1c2ccc(F)cc2c2c(N)c3c(nc21)CCCC3 [SK59, 6-(3-(dimethylamino)propyl)-9-fluoro-2,3,4,6-tetrahydro-1H-indolo[2,3-b]quinolin-11-amine] | significant inhibitory activity; also recorded: significantly reduced | significant inhibitory activity; also recorded: significantly reduced
CN(C)CCCn1c2ccc(Cl)cc2c2c(N)c3c(nc21)CCCC3 [SK60, 9-chloro-6-(3-(dimethylamino)propyl)-2,3,4,6-tetrahydro-1H-indolo[2,3-b]quinolin-11-amine] | significant inhibitory activity; also recorded: significantly reduced | significant inhibitory activity; also recorded: significantly reduced
CN(C)CCCn1c2ccc(OC(F)(F)F)cc2c2c(N)c3c(nc21)CCCC3 [SK61, 6-(3-(dimethylamino)propyl)-9-(trifluoromethoxy)-2,3,4,6-tetrahydro-1H-indolo[2,3-b]quinolin-11-amine] | significant inhibitory activity; also recorded: significantly reduced | significant inhibitory activity; also recorded: significantly reduced
